SMILES strings stand for the structures.

In series [1] the test system is Jurkat. As to the kind of experiment: CID-induced apoptosis (annexin V) in transduced Jurkat cells. The format is cell-based, human. The settings on record: iFas-transduced Jurkat, 10 nM, 8 hours.
The test system of series [2] is gene-modified allodepleted cells (SFG.iCasp9.2A.CD19). The experiment in a line: AP20187-induced apoptosis of gene-modified allodepleted T cells (annexin V/7-AAD). The series is classed as cell-based, human. Here is the method: Suicide gene functionality was assessed by adding a small molecule synthetic homodimerizer, AP20187 (Ariad Pharmaceuticals; Cambridge, Mass.), at 10 nM final concentration the day following CD19 immunomagnetic selection. Cells were stained with annexin V and 7-amino-actinomycin (7-AAD)(BD Pharmingen) at 24 hours and analyzed by flow cytometry. Cells negative for both annexin V and 7-AAD were considered viable, cells that were annexin V positive were apoptotic, and cells that were both annexin V and 7-AAD positive were necrotic. The percentage killing induced by dimerization was corrected for baseline viability as follows: Percentage killing=100%−(% Viability in AP20187-treated cells÷% Viability in non-treated cells).
Cells were maintained in T cell medium containing 50 U/ml IL-2 until 22 days after transduction. A portion of cells was reactivated on 24-well plates coated with […] OKT3 and 1 μg/ml anti-CD28 (Clone CD28.2, BD Pharmingen, San Jose, Calif.) for 48 to 72 hours. CD19 expression and suicide gene function in both reactivated and non-reactivated cells were measured on day 24 or 25 post transduction.
The day following immunomagnetic selection, 10 nM of the chemical inducer of dimerization, AP20187, was added to induce apoptosis, which appeared within 24 hours. […] Killing efficiency after correction for baseline viability was about 92.9%±3.8%. Large-scale CD19 selection produced cells that were killed with similar efficiency as small-scale selection: mean viability with and without AP20187, and percentage killing, in large and small scale were about 3.9%, about 84.0%, about 95.4% (n=3) and about 6.6%, about 79.3%, about 91.4% (n=5) respectively. AP20187 was non-toxic to non-transduced cells: viability with and without AP20187 was about 86%±9% and 87%±8% respectively (n=6).
To assess the stability of transgene expression and function, cells were maintained in T cell culture medium and low dose IL-2 (50 U/ml) until […] after transduction. A portion of cells was then reactivated with OKT3/anti-CD28. CD19 expression was analyzed by flow cytometry 48 to 72 hours later, and suicide gene function was assessed by treatment with 10 nM AP20187. The obtained are for cells from day 5 post transduction (ie, 1 day after CD 19 selection) and day 24 post transduction, with or without 48-72 hours of reactivation (5 experiments). In 2 experiments, CD25 selection was performed after OKT3/aCD28 activation to further enrich activated cells. Error bars represent standard deviation. * indicates p<0.05 when compared to cells from day 5 post transduction. By day 24, surface CD19 expression fell from about 98%±1% to about 88%±4% (p<0.05) with a parallel decrease in mean fluorescence intensity (MFI) from 793±128 to 478±107 (p<0.05) (see FIG. 13B). Similarly, there was a significant reduction in suicide gene function: residual viability was 19.6±5.6% following treatment with AP20187; after correction for baseline viability of 54.8±20.9%, this equated to killing efficiency of only 63.1±6.2%.
To determine whether the decrease in transgene expression with time was due to reduced transcription following T cell quiescence or to elimination of transduced cells, a portion of cells were reactivated on day 22 post transduction with OKT3 and anti-CD28 antibody. […] CD19 expression increased from about 88%±4% to about 93%±4% (p<0.01) and CD19 MFI increased from 478±107 to 643±174 (p<0.01). […] Killing of the CD25 negative fraction was 78.6±9.1%.

The mark [3] stands for this setting: 10 nM, 24 hours, day after CD19 selection.

Regarding `CC[C@H](C(=O)N1CCCC[C@H]1C(=O)O[C@H](CCc1ccc(OC)c(OC)c1)c1cccc(OCC(=O)NCC(CNC(=O)COc2cccc([C@@H](CCc3ccc(OC)c(OC)c3)OC(=O)[C@@H]3CCCCN3C(=O)[C@@H](CC)c3cc(OC)c(OC)c(OC)c3)c2)CN(C)C)c1)c1cc(OC)c(OC)c(OC)c1` [AP20187], the “apoptotic cells (annexin-V)” value in series [1] stood at 56.4%+/−15.6. In series [2] (setting [3]), the “killing efficiency after correction for baseline viability” value is given as “about 92.9%±3.8”; the “viable cells (annexin V and 7-AAD negative)” value is “about 5.5%±2.5”. Further, the killing efficiency in series [2] (OKT3/aCD28-reactivated cells, day 24 or 25) was ~84.6%±8.0. Also, the mean viability result in series [2] (small-scale CD19 selection, n=5) was “about 6.6%”. Also, the “viability of non-transduced cells” value in series [2] (with AP20187, n=6) is listed as “about 86%±9”.

The values are drawn from US20220152100A1, “METHODS FOR CONTROLLED ACTIVATION OR ELIMINATION OF THERAPEUTIC CELLS” (Bellicum Pharmaceuticals, Inc., priority 2014, published 2022).
